{
  "source": "patent US11045510B2",
  "about": "“Combination of aqueous extracts of watercress and nasturtium and ATP for use in the treatment of alopecia” (PIERRE FABRE DERMO-COSMETIQUE, priority 2017, dated 2021)",
  "key": {"[1]": {"system": "keratinocyte growth factor (KGF) released by dermal papilla cells", "experiment": "KGF release by dermal papilla cells derived from human hair follicles", "type": "cell-based", "settings": "ATP 30 μM", "protocol": "(§1) The goal of this study is to evaluate the effects of the combination of an aqueous extract of watercress and of an aqueous extract of Indian cress, combined with ATP on the release of 2 anagen phase markers, hepatocyte growth factor (HGF) and keratinocyte growth factor (KGF), released by dermal papilla cells. These two growth factors have a stimulatory activity on hair growth by activating specific signalling pathways.\n(§2) The studies were carried out on dermal papilla cells derived from human hair follicles from three different donors. The cells are seeded in 24-well plates and cultured for 24 h with the necessary supplements. The cells are then treated for 24 h with the products, i.e., either with ATP (30 μM), with Cressatine®, i.e., an aqueous extract of watercress and an aqueous extract of Indian cress (140 μg/ml), or with the combination ATP-Cressatine® at the same concentrations as before. The supernatants were collected for subsequent analysis of markers HGF and KGF. HGF is measured using set HCCBP1MAG-58K from EMD Millipore and KGF is measured by using set KGF/FGF-7 DuoSet ELISA DY251 from R&D Systems."}, "[2]": {"system": "hepatocyte growth factor (HGF) released by dermal papilla cells", "experiment": "HGF release by dermal papilla cells derived from human hair follicles", "type": "cell-based", "settings": "ATP 30 μM", "protocol": "as §1, §2"}, "[3]": {"settings": "cells treated for 24 h, Cressatine 140 μg/ml, combination at same concentrations, average of 3 donors"}},
  "data": [
    {"smiles": "Nc1ncnc2c1ncn2[C@@H]1O[C@H](COP(=O)(O)OP(=O)(O)OP(=O)(O)O)[C@@H](O)[C@H]1O", "note": "[ATP, adenosine 5′-triphosphate]", "values": [
      {"measurement": "KGF", "setting": "[1]; [3]", "result": 37, "unit": "pg/mL"},
      {"measurement": "higher secretion of KGF", "setting": "[1]; versus control, 24 h", "result": 50, "unit": "%"},
      {"measurement": "HGF", "setting": "[2]; [3]", "result": 92, "unit": "pg/mL"},
      {"measurement": "modulation of the production of HGF (in words)", "setting": "[2]; versus control, 24 h", "result": "does not significantly modulate"}
    ]}
  ]
}
